Experiment: recombinant UMI read abundance after kanamycin selection (control-corrected) (log10(CPM+1)); higher = more efficient recombination; extreme values may be limits of the assay; sequences stand for … in AGTGCAGAGAAAATCGGCCAGTTTTCTCTGCCTGCAGTCCGCATGCCGTGGGACCCCTTGGGTTCTAACCTGTTGCCTAGATTTATGCAGCGGACTGCCTTTCTCCCAAAGTGATAAACCGG…AGGTTGGTTTCACT; site = the 11-nt donor
Outline: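 After plating on IPTG (0.07 mM) plus kanamycin, or unselected, in two replicates, recombinant UMIs were PCR-amplified across the donor–target junction and sequenced. The cells were Escherichia coli co-electroporated with a UMI-tagged donor and donor-binding-loop pair library and a target plasmid with a fixed target and T7-inducible IS621 bridge recombinase. Values are log10(CPM+1), with CPM averaged over replicates and scaled by control-derived factors.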
With “TGTCCCCCATGGACCGGTTTTCCCGGTAATCCGTATTTGTA (site TGTGCCCCTTA)” the “recombinant UMI read abundance (log10)” value was 0.0174.
In the case of “TGTCCCCCATGGACCGGTTTTCCCGGTAATCCGTATTTGTA (site TGTTCCCCTTA)”, the “recombinant UMI read abundance (log10)” value is reported as 0.0128.
With “TGTCTAACATGGACCGGTTTTCCCGGTAATCCGTATTTGGC (site TGTCTAACTGC)” the “recombinant UMI read abundance (log10)” value was 0.011.
In the case of “TGTCTATCATGGACCGGTTTTCCCGGTAATCCGTATTTGAC (site TGTCTATCTGT)”, the “recombinant UMI read abundance (log10)” value is reported as 0.
For “TGTGATACATGGACCGGTTTTCCCGGTAATCCGTATTTGCC (site TGTGATACTGG)”, the “recombinant UMI read abundance (log10)” value was 0.
In the case of “TGTGATTCATGGACCGGTTTTCCCGGTAATCCGTATTTGTG (site TGTGATTCTCA)”, the “recombinant UMI read abundance (log10)” value is reported as 0.304.
For “TGTGCAGCATGGACCGGTTTTCCCGGTAATCCGTATTTGGT (site TGTGCAGCTAC)”, the “recombinant UMI read abundance (log10)” value was 0.0104.
For “TGTGCGTCATGGACCGGTTTTCCCGGTAATCCGTATTTGGT (site TGTGCGTCTAC)”, the “recombinant UMI read abundance (log10)” value was 0.348.
In the case of “TGTGGAGCATGGACCGGTTTTCCCGGTAATCCGTATTTGGC (site TGTGGAGCTGC)”, the “recombinant UMI read abundance (log10)” value is reported as 1.6.
In the case of “TGTGGTACATGGACCGGTTTTCCCGGTAATCCGTATTTGGC (site TGTGGTACTGC)”, the “recombinant UMI read abundance (log10)” value is reported as 0.698.
In the case of “TGTGTAACATGGACCGGTTTTCCCGGTAATCCGTATTTGGG (site TGTGTAACTCC)”, the “recombinant UMI read abundance (log10)” value is reported as 0.0344.
For “TGTGTATCATGGACCGGTTTTCCCGGTAATCCGTATTTGAT (site TGTGTATCTAT)”, the “recombinant UMI read abundance (log10)” value was 0.398.
For “TGTTATACATGGACCGGTTTTCCCGGTAATCCGTATTTGCA (site TGTTATACTTG)”, the “recombinant UMI read abundance (log10)” value was 1.64.
With “TGTTCAGCATGGACCGGTTTTCCCGGTAATCCGTATTTGTA (site TGTTCAGCTTA)” the “recombinant UMI read abundance (log10)” value was 0.141.
In the case of “TGTTCCACATGGACCGGTTTTCCCGGTAATCCGTATTTGTA (site TGTTCCACTTA)”, the “recombinant UMI read abundance (log10)” value is reported as 0.225.
For “TGTTCCACATGGACCGGTTTTCCCGGTAATCCGTATTTGTA (site TGTTCCCCTTA)”, the “recombinant UMI read abundance (log10)” value was 0.00983.
For “TGTTCCACATGGACCGGTTTTCCCGGTAATCCGTATTTGTA (site TGTTCCGCTTA)”, the “recombinant UMI read abundance (log10)” value was 0.0123.
For “TGTTCCACATGGACCGGTTTTCCCGGTAATCCGTATTTGTA (site TGTTCCTCTTA)”, the “recombinant UMI read abundance (log10)” value was 0.0149.
For “TGTTCCGCATGGACCGGTTTTCCCGGTAATCCGTATTTGGC (site TGTTCCGCTGC)”, the “recombinant UMI read abundance (log10)” value was 0.484.
With “TGTTCCTCATGGACCGGTTTTCCCGGTAATCCGTATTTGTA (site TGTTCCACTTA)” the “recombinant UMI read abundance (log10)” value was 0.0142.
For “TGTTCCTCATGGACCGGTTTTCCCGGTAATCCGTATTTGTA (site TGTTCCCCTTA)”, the “recombinant UMI read abundance (log10)” value was 0.00558.
In the case of “TGTTCCTCATGGACCGGTTTTCCCGGTAATCCGTATTTGTA (site TGTTCCGCTTA)”, the “recombinant UMI read abundance (log10)” value is reported as 0.
In the case of “TGTTCCTCATGGACCGGTTTTCCCGGTAATCCGTATTTGTA (site TGTTCCTCTTA)”, the “recombinant UMI read abundance (log10)” value is reported as 1.06.
For “TGTTCGCCATGGACCGGTTTTCCCGGTAATCCGTATTTGTA (site TGTTCACCTTA)”, the “recombinant UMI read abundance (log10)” value was 0.
In the case of “TGTTCGCCATGGACCGGTTTTCCCGGTAATCCGTATTTGTA (site TGTTCCCCTTA)”, the “recombinant UMI read abundance (log10)” value is reported as 0.0392.
With “TGTTCGCCATGGACCGGTTTTCCCGGTAATCCGTATTTGTA (site TGTTCGCCTTA)” the “recombinant UMI read abundance (log10)” value was 0.0127.
With “TGTTCGCCATGGACCGGTTTTCCCGGTAATCCGTATTTGTA (site TGTTCTCCTTA)” the “recombinant UMI read abundance (log10)” value was 0.
With “TGTTTCCCATGGACCGGTTTTCCCGGTAATCCGTATTTGTA (site TGTTACCCTTA)” the “recombinant UMI read abundance (log10)” value was 0.139.
With “TGTTTCCCATGGACCGGTTTTCCCGGTAATCCGTATTTGTA (site TGTTCCCCTTA)” the “recombinant UMI read abundance (log10)” value was 0.0148.
For “TGTTTCCCATGGACCGGTTTTCCCGGTAATCCGTATTTGTA (site TGTTGCCCTTA)”, the “recombinant UMI read abundance (log10)” value was 0.0291.
In the case of “TGTTTCCCATGGACCGGTTTTCCCGGTAATCCGTATTTGTA (site TGTTTCCCTTA)”, the “recombinant UMI read abundance (log10)” value is reported as 0.152.
With “TGTTTGGCATGGACCGGTTTTCCCGGTAATCCGTATTTGCT (site AGTTTGGCTAG)” the “recombinant UMI read abundance (log10)” value was 0.
In the case of “TGTTTGGCATGGACCGGTTTTCCCGGTAATCCGTATTTGCT (site CGTTTGGCTAG)”, the “recombinant UMI read abundance (log10)” value is reported as 0.00328.
For “TGTTTGGCATGGACCGGTTTTCCCGGTAATCCGTATTTGCT (site GGTTTGGCTAG)”, the “recombinant UMI read abundance (log10)” value was 0.0409.
In the case of “TGTTTGGCATGGACCGGTTTTCCCGGTAATCCGTATTTGCT (site TGTTTGGCTAG)”, the “recombinant UMI read abundance (log10)” value is reported as 0.
With “TTAATTTCATGGACCGGTTTTCCCGGTAATCCGTATTTGAA (site TTAATTTCTTT)” the “recombinant UMI read abundance (log10)” value was 0.
With “TTACCTGCATGGACCGGTTTTCCCGGTAATCCGTATTTGTG (site TTAACTGCTCA)” the “recombinant UMI read abundance (log10)” value was 0.013.
In the case of “TTACCTGCATGGACCGGTTTTCCCGGTAATCCGTATTTGTG (site TTACCTGCTCA)”, the “recombinant UMI read abundance (log10)” value is reported as 0.0157.
For “TTACCTGCATGGACCGGTTTTCCCGGTAATCCGTATTTGTG (site TTAGCTGCTCA)”, the “recombinant UMI read abundance (log10)” value was 0.00404.
For “TTACCTGCATGGACCGGTTTTCCCGGTAATCCGTATTTGTG (site TTATCTGCTCA)”, the “recombinant UMI read abundance (log10)” value was 0.00944.
For “TTACGTCCATGGACCGGTTTTCCCGGTAATCCGTATTTGGT (site TTACGTCCTAC)”, the “recombinant UMI read abundance (log10)” value was 0.02.
With “TTACTGACATGGACCGGTTTTCCCGGTAATCCGTATTTGCC (site GGTTATCCTTC)” the “recombinant UMI read abundance (log10)” value was 0.00491.
With “TTAGAGACATGGACCGGTTTTCCCGGTAATCCGTATTTGCG (site TAAGAGACTCG)” the “recombinant UMI read abundance (log10)” value was 0.923.
In the case of “TTAGAGACATGGACCGGTTTTCCCGGTAATCCGTATTTGCG (site TCAGAGACTCG)”, the “recombinant UMI read abundance (log10)” value is reported as 1.03.
With “TTAGAGACATGGACCGGTTTTCCCGGTAATCCGTATTTGCG (site TGAGAGACTCG)” the “recombinant UMI read abundance (log10)” value was 0.02.
With “TTAGAGACATGGACCGGTTTTCCCGGTAATCCGTATTTGCG (site TTAGAGACTCG)” the “recombinant UMI read abundance (log10)” value was 2.16.
In the case of “TTAGATGCATGGACCGGTTTTCCCGGTAATCCGTATTTGCC (site TTAGATGCTGG)”, the “recombinant UMI read abundance (log10)” value is reported as 1.9.
For “TTAGCAGCATGGACCGGTTTTCCCGGTAATCCGTATTTGCC (site TTAGCAGCTGG)”, the “recombinant UMI read abundance (log10)” value was 2.61.
For “TTAGCAGCATGGACCGGTTTTCCCGGTAATCCGTATTTGTG (site TTAGCAGCTCA)”, the “recombinant UMI read abundance (log10)” value was 0.707.
In the case of “TTAGCAGCATGGACCGGTTTTCCCGGTAATCCGTATTTGTG (site TTAGCCGCTCA)”, the “recombinant UMI read abundance (log10)” value is reported as 0.0121.
In the case of “TTAGCAGCATGGACCGGTTTTCCCGGTAATCCGTATTTGTG (site TTAGCGGCTCA)”, the “recombinant UMI read abundance (log10)” value is reported as 0.0104.
In the case of “TTAGCAGCATGGACCGGTTTTCCCGGTAATCCGTATTTGTG (site TTAGCTGCTCA)”, the “recombinant UMI read abundance (log10)” value is reported as 0.00315.
For “TTAGCGGCATGGACCGGTTTTCCCGGTAATCCGTATTTGCT (site TTAGCGGCTAG)”, the “recombinant UMI read abundance (log10)” value was 1.71.
For “TTAGCGGCATGGACCGGTTTTCCCGGTAATCCGTATTTGCT (site TTCGCGGCTAG)”, the “recombinant UMI read abundance (log10)” value was 0.
In the case of “TTAGCGGCATGGACCGGTTTTCCCGGTAATCCGTATTTGCT (site TTGGCGGCTAG)”, the “recombinant UMI read abundance (log10)” value is reported as 0.
For “TTAGCGGCATGGACCGGTTTTCCCGGTAATCCGTATTTGCT (site TTTGCGGCTAG)”, the “recombinant UMI read abundance (log10)” value was 0.
In the case of “TTAGCTGCATGGACCGGTTTTCCCGGTAATCCGTATTTGGG (site TTAGCTGCTCA)”, the “recombinant UMI read abundance (log10)” value is reported as 0.

From the supplement of paper PMC11208160
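Note: IS621 bridge recombinase in Escherichia coli cells against a fixed T5 target plasmid.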
